Laboratory results: US8883807B2, “Piperidinone carboxamide indane CGRP receptor antagonists” (Merck Sharp & Dohme Corp., priority 2010, dated 2014)
Structures can show the parent of a compound that is named as a salt. Where no end group is shown, it is not given here.

What was measured:
[1] = biological target: T1, recombinant human CL receptor/RAMP1 (Homo sapiens, UniProt O60894+Q16602); test: Recombinant Receptor Binding Assay (125I-hCGRP); conditions: exemplary compounds of the invention
T1 construct: expressed in transfected cells; membranes
T1 sequence (Q16602 23-461): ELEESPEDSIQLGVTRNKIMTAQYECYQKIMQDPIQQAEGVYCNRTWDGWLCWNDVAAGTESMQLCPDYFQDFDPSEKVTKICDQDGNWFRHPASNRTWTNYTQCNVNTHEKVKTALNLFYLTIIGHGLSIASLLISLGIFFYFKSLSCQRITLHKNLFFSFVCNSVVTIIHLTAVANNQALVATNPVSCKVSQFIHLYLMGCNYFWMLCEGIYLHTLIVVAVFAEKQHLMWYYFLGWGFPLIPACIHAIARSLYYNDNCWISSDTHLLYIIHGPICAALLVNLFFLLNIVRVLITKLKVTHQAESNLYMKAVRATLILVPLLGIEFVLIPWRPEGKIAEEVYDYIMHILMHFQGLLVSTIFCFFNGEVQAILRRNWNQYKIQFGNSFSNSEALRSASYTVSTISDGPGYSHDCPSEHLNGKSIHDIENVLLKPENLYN
T1 sequence (O60894 27-148): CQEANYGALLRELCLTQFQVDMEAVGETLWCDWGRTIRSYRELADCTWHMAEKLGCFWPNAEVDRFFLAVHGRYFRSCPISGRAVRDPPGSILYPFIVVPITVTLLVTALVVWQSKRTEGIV
Method: Recombinant Receptor: Human CL receptor (Genbank accession number L76380) was subcloned into the expression vector pIREShyg2 (BD Biosciences Clontech) as a 5′NheI and 3′ PmeI fragment. Human RAMP 1 (Genbank accession number AJ001014) was subcloned into the expression vector pIRESpuro2 (BD Biosciences Clontech) as a 5′NheI and 3′NotI fragment. HEK 293 cells (human embryonic kidney cells; ATCC #CRL-1573) were cultured in DMEM with 4.5 g/L glucose, 1 mM sodium pyruvate and 2 mM glutamine supplemented with 10% fetal bovine serum (FBS), 100 units/mL penicillin and 100 μg/mL streptomycin, and maintained at 37° C. and 95% humidity. Cells were subcultured by treatment with 0.25% trypsin with 0.1% EDTA in HBSS. Stable cell line generation was accomplished by co-transfecting 10 μg of DNA with 30 μg Lipofectamine 2000 (Invitrogen) in 75 cm^2 flasks. CL receptor and RAMP1 expression constructs were co-transfected in equal amounts. Twenty-four hours after transfection the cells were diluted and selective medium (growth medium+300 μg/mL hygromycin and 1 μg/mL puromycin) was added the following day. A clonal cell line was generated by single cell deposition utilizing a FACS Vantage SE (Becton Dickinson). Growth medium was adjusted to 150 μg/mL hygromycin and 0.5 μg/mL puromycin for cell propagation.
Recombinant Receptor Binding Assay: Cells expressing recombinant human CL receptor/RAMP1 were washed with PBS and harvested in harvest buffer containing 50 mM HEPES, 1 mM EDTA and Complete™ protease inhibitors (Roche). The cell suspension was disrupted with a laboratory homogenizer and centrifuged at 48,000 g to isolate membranes. The pellets were resuspended in harvest buffer plus 250 mM sucrose and stored at −70° C. For binding assays, 20 μg of membranes were incubated in 1 mL binding buffer (10 mM HEPES, pH 7.4, 5 mM MgCl2, and 0.2% BSA) for 3 h at room temperature containing […] ^125I-hCGRP (GE Healthcare) and antagonist. The assay was terminated by filtration through 96-well GFB glass fiber filter plates (PerkinElmer) that had been blocked with 0.05% polyethyleneimine. The filters were washed 3 times with ice-cold assay buffer (10 mM HEPES, pH 7.4, and 5 mM MgCl2). Scintillation fluid was added and the plates were counted on a Topcount (Packard). Non-specific binding was determined and the data analysis was carried out with the apparent dissociation constant (Ki) determined by using a non-linear least squares fitting the bound CPM data to the equation below:
[formula] Where Y is observed CPM bound, Ymax is total bound counts, Ymin is non specific bound counts, (Ymax−Ymin) is specific bound counts, % Imax is the maximum percent inhibition, % I min is the minimum percent inhibition, radiolabel is the probe, and the Kd is the apparent dissociation constant for the radioligand for the receptor as determined by hot saturation experiments.

[2] = tested on: acute attacks of migraine; conditions: clinical trials; cited from earlier work
[3] = tested on: headache induced by CGRP infusion; conditions: control group; cited from earlier work
[4] = tested on: facial blood flow; conditions: marmoset, electrical stimulation of the trigeminal ganglion; cited from earlier work
[5] = tested on: middle meningeal artery; conditions: rats, electrical stimulation of the dura mater, prior administration; cited from earlier work
[6] = tested on: facial blood flow; conditions: rat, trigeminal ganglion stimulation; cited from earlier work

| Ki [1] | Compound | also measured |
| --- | --- | --- |
| 0.039 nM | C[C@@H]1[C@H](c2cc(F)cc(F)c2F)C[C@H](NC(=O)c2ccc3c(c2)C[C@@]2(C3)C(=O)Nc3ncccc32)C(=O)N1CC(F)(F)F [Example 3, (2R)-N-1-[(3S,5S,6R)-6-Methyl-2-oxo-1-(2,2,2-trifluoroethyl)-5-(2,3,5-trifluorophenyl)piperidin-3-yl]-2′-oxo-1,1′,2′,3-tetrahydrospiro[indene-2,3′-pyrrolo[2,3-b]pyridine]-5-carboxamide hydrochloride] |  |
|  | NCCCC[C@H](NC(=O)[C@@H](Cc1cc(Br)c(O)c(Br)c1)NC(=O)N1CCC(N2Cc3ccccc3NC2=O)CC1)C(=O)N1CCN(c2ccncc2)CC1 [BIBN4096BS] | effectiveness in treating acute attacks of migraine [2]: effective in treating acute attacks of migraine; prevention of headache induced by CGRP infusion [3]: able to prevent headache induced by CGRP infusion; effect on increase in facial blood flow [4]: blocked |
| 0.021 nM | C[C@@H]1[C@H](c2c(F)c(F)cc(F)c2F)C[C@H](NC(=O)c2ccc3c(c2)C[C@@]2(C3)C(=O)Nc3ncncc32)C(=O)N1CC(F)(F)F [Example 20] |  |
| 0.24 nM | O=C(N[C@H]1C[C@@H](c2c(Cl)cccc2Cl)CN(CC(F)(F)F)C1=O)c1ccc2c(c1)C[C@@]1(C2)C(=O)Nc2ncccc21 [Example 9] |  |
| 0.17 nM | C[C@@H]1[C@H](c2cccc(Cl)c2)C[C@H](NC(=O)c2ccc3c(c2)C[C@@]2(C3)C(=O)Nc3ncccc32)C(=O)N1CC(F)(F)F [Example 2, (2R)-N-[(3S,5S,6R)-5-(3-Chlorophenyl)-6-methyl-2-oxo-1-(2,2,2-trifluoroethyl)piperidin-3 yl]-2′-oxo-1,1′,2′,3-tetrahydrospiro[indene-2,3′-pyrrolo[2,3-b]pyridine]-5-carboxamide] |  |
| 0.13 nM | C[C@@H]1[C@H](c2ccccc2)C[C@H](NC(=O)c2ccc3c(c2)C[C@@]2(C3)C(=O)Nc3ncc(C#N)cc32)C(=O)N1CC(F)(F)F [Example 16] |  |
|  | CGRP(8-37) (VTHRLAGLLSRSGGVVKNNFVPTNVGSKAF; ends and bridges not checked; UniProt P06881 90-119, looked up, fragment) [a peptide CGRP receptor antagonist] | effect on increase in diameter of the middle meningeal artery [5]: blocked; effect on increased facial blood flow [6]: inhibited |
| 0.025 nM | C[C@@H]1[C@H](c2c(F)ccc(F)c2F)C[C@H](NC(=O)c2ccc3c(c2)C[C@@]2(C3)C(=O)Nc3ncccc32)C(=O)N1CC(F)(F)F [Example 12] |  |
|  | O=C(N[C@@H]1CC[C@@H](c2cccc(F)c2F)CN(CC(F)(F)F)C1=O)N1CCC(n2c(=O)[nH]c3ncccc32)CC1 [telcagepant] | effectiveness in treating acute attacks of migraine [2]: antimigraine effectiveness |
| 0.032 nM | CC(C)CN1C[C@H](c2cccc(F)c2F)C[C@H](NC(=O)c2ccc3c(c2)C[C@@]2(C3)C(=O)Nc3ncccc32)C1=O [Example 14] |  |
| 0.18 nM | O=C(N[C@H]1C[C@@H](c2cc(F)cc(F)c2)CN(CC(F)(F)F)C1=O)c1ccc2c(c1)C[C@@]1(C2)C(=O)Nc2ncccc21 [Example 4] |  |
| 0.061 nM | O=C(N[C@H]1C[C@@H](c2cccc(F)c2F)CN(CC(F)(F)F)C1=O)c1ccc2c(c1)C[C@@]1(C2)C(=O)Nc2ncccc21 [Example 5] |  |
| 0.079 nM | C[C@@H]1[C@H](c2ccccc2)C[C@H](NC(=O)c2ccc3c(c2)C[C@@]2(C3)C(=O)Nc3ncccc32)C(=O)N1CC(F)(F)F [Example 1, (2R)-N-[(3S,5S,6R)-6-Methyl-2-oxo-5-phenyl-1-(2,2,2-trifluoroethyl)piperidin-3-yl]-2′-oxo-1,1′,2′,3-tetrahydrospiro[indene-2,3′-pyrrolo[2,3-b]pyridine]-5-carboxamide] |  |
